Read-outs that look alike come from different tables or passages of the source.
Tests used:
SARS-CoV-2 (WK-521) [1] = assay: microbe, parasite or virus in culture; type: cell-based; settings: Severe acute respiratory syndrome coronavirus 2, HEK-293T, 72 h, HEK293T/ACE2 cells, MOI=0.1, 3 days, qPCR of viral RNA in supernatant; for IC90: read-out: IC50(μM) (footnote defines IC90: 90% inhibitory concentration); for IC50: read-out: IC50: 50% inhibitory concentration (reduces viral production and replication by 50%)
in vitro [2] = settings: human
HEK293T/ACE2 cells = settings: human, 3 days
SARS-CoV-2 (WK-521) [3] = assay: Anti-SARS-CoV-2 effect, assay with VeroE6/TMPRSS2 cells (inhibition of virus-induced cell death, Cell Counting Kit-8); type: cell-based; settings: for EC50: VeroE6/TMPRSS2 cells, MOI=0.01, 3 days of culture, read-out: EC50: 50% effective concentration (concentration of agent which inhibits cell death induced by SARS-CoV-2 infection by 50%)
in vitro [4] = settings: African green monkey
VeroE6/TMPRSS2 cells [5] = settings: African green monkey, 3 days
VeroE6/TMPRSS2 cells [6] = assay: Cytotoxicity in uninfected VeroE6/TMPRSS2 cells (viable cell number, Cell Counting Kit-8); settings: read-out: CC50: 50% cytotoxic concentration (concentration of agent which reduces the number of viable cells by 50%), 3 days of culture

Compound	IC90 (SARS-CoV-2 (WK-521) [1])	IC50 (SARS-CoV-2 (WK-521) [1])	CC50 at 3 days (in vitro [2])	EC50 (SARS-CoV-2 (WK-521) [3])	CC50 at 3 days (in vitro [4])	also measured
CCCCn1c(=O)c2cc(F)c(OC3COC3)cc2c2cc(C(O)(C(F)(F)F)C(F)(F)F)ccc21 [NR-80]	6.16 µM	0.59 µM	19.1 µM	–	–	–
CCCCn1c(=O)c2ccc(OCCO)cc2c2cc(C(O)(C(F)(F)F)C(F)(F)F)ccc21 [NR-04, 5-butyl-2-(1,1,1,3,3,3-hexafluoro-2-hydroxypropan-2-yl)-9-(2-hydroxyethoxy)-phenanthridin-6(5H)-one]	3.72 µM	0.489 µM	> 20 µM	–	–	–
CCCCn1c(=O)c2cc(F)c(OCC(N)=O)cc2c2cc(C(O)(C(F)(F)F)C(F)(F)F)ccc21 [NR-63]	2.48 µM	0.21 µM	> 20 µM	–	–	–
CCCCn1c(=O)c2ccc(OCC(C)=O)cc2c2cc(C(O)(C(F)(F)F)C(F)(F)F)ccc21 [NR-93]	3.27 µM	0.243 µM	–	–	–	CC50 (HEK293T/ACE2 cells): > 20 µM
CCCCn1c(=O)c2ccccc2c2cc(C(O)(C(F)(F)F)C(F)(F)F)cc(OC)c21 [KZ08]	–	–	–	2.9 µM	> 10 µM	–
CCCCn1c(=O)c2cc(O)c(OC3(C)CNC3)cc2c2cc(C(O)(C(F)(F)F)C(F)(F)F)ccc21 [NR-58]	4.69 µM	1.04 µM	10.6 µM	–	–	–
CCCCn1c(=O)c2ccc(OCC(=O)NC)cc2c2cc(C(O)(C(F)(F)F)C(F)(F)F)ccc21 [NR-97]	3.27 µM	0.24 µM	> 20 µM	–	–	–
CCCCn1c(=O)c2cc(OC)ccc2c2cc(C(O)(C(F)(F)F)C(F)(F)F)ccc21 [KZ12]	–	–	–	8.8 µM	> 10 µM	–
CCCCn1c(=O)c2ccc(O)cc2c2cc(C(O)(C(F)(F)F)C(F)(F)F)ccc21 [YN029, 5-butyl-2-(1′,1′,1′,3′,3′,3′-hexafluoro-2′-hydroxypropan-2′-yl) hydroxyphenanthridin-6(5H)-one]	3.04 µM	0.588 µM	16.9 µM	1.9 µM	> 10 µM	–
CCCCn1c(=O)c2cc(C)ccc2c2cc(C(O)(C(F)(F)F)C(F)(F)F)ccc21 [KZ24]	–	–	–	4.1 µM	–	CC50 (VeroE6/TMPRSS2 cells [5]): > 10 µM
CCCCn1c(=O)c2ccc(OC(CO)CO)cc2c2cc(C(O)(C(F)(F)F)C(F)(F)F)ccc21 [NR-46]	3.76 µM	0.44 µM	> 20 µM	–	–	–
CCCCn1c(=O)c2cc(F)c(O[C@@H]3COC[C@@H]3O)cc2c2cc(C(O)(C(F)(F)F)C(F)(F)F)ccc21 [NR-65]	6.76 µM	0.2 µM	18.2 µM	–	–	–
CCCCn1c(=O)c2cc(F)c(OCCNC(C)=O)cc2c2cc(C(O)(C(F)(F)F)C(F)(F)F)ccc21 [NR-62]	7.82 µM	1.28 µM	13 µM	–	–	–
CCCCn1c(=O)c2cc3c(cc2c2cc(C(O)(C(F)(F)F)C(F)(F)F)ccc21)OCO3 [KZ26, 5-butyl-2-(1′,1′,1′,3′,3′,3′-hexafluoro-2′-hydroxypropan-2′-yl)-[1,3] dioxolo[4,5-j] phenanthridin-6(5H)-one]	–	–	–	2.9 µM	> 10 µM	–
CCCCn1c(=O)c2cc(F)c(OCCO)cc2c2cc(C(O)(C(F)(F)F)C(F)(F)F)ccc21 [NR-61]	4.99 µM	1.09 µM	19 µM	–	–	–
CCCCn1c(=O)c2cc3c(cc2c2cc(C(O)(C(F)(F)F)C(F)(F)F)ccc21)OC1COCC1O3 (centres unmarked) [NR-84]	5.83 µM	1.74 µM	> 20 µM	–	–	–
5-butyl-2-(1′,1′,1′,3′,3′,3′-hexafluoro-2′-hydroxypropan-2′-yl)-7,8,9-trimethoxy-phenanthridin-6(5H)-one [KZ39]	–	–	–	8.6 µM	–	CC50 (VeroE6/TMPRSS2 cells [6]): > 10 µM
CCCCn1c(=O)c2cc(F)c(OCCN(C)C)cc2c2cc(C(O)(C(F)(F)F)C(F)(F)F)ccc21 [NR-60]	> 10 µM	0.95 µM	6.73 µM	–	–	–

Compound	IC90 (SARS-CoV-2 (WK-521) [1])	IC50 (SARS-CoV-2 (WK-521) [1])	CC50 at 3 days (in vitro [2])	EC50 (SARS-CoV-2 (WK-521) [3])	CC50 at 3 days (in vitro [4])	also measured
CCCCn1c(=O)c2cc(F)c(OCC(O)CO)cc2c2cc(C(O)(C(F)(F)F)C(F)(F)F)ccc21 (centres unmarked) [NR-82]	8.57 µM	0.95 µM	14.5 µM	–	–	–
CCCCn1c(=O)c2ccc(OC)cc2c2cc(C(O)(C(F)(F)F)C(F)(F)F)ccc21 [KZ32, 5-butyl-2-(1′,1′,1′,3′,3′,3′-hexafluoro-2′-hydroxypropan-2′-yl)-9-methoxy-phenanthridin-6(5H)-one]	7.37 µM	1.03 µM	> 20 µM	1.8 µM	> 10 µM	–
CC(C)Cn1c(=O)c2ccccc2c2cc(C(O)(C(F)(F)F)C(F)(F)F)ccc21 [KZ01]	–	–	–	5.4 µM	> 10 µM	–
CCCCn1c(=O)c2cc(F)c(OC3CCOC3)cc2c2cc(C(O)(C(F)(F)F)C(F)(F)F)ccc21 (centres unmarked) [NR-66]	5.66 µM	0.8 µM	13.9 µM	–	–	–
CCCCn1c(=O)c2ccc(OCC(C)(C)O)cc2c2cc(C(O)(C(F)(F)F)C(F)(F)F)ccc21 [NR-32, 5-butyl-2-(1,1,1,3,3,3-hexafluoro-2-hydroxypropan-2-yl)-9-(2-hydroxy-2-methylpropyloxy)phenanthridin-6(5H)-one]	2.34 µM	0.27 µM	> 20 µM	–	–	–
CCCCn1c(=O)c2cc(OC3CCOC3)c(OC3CCOC3)cc2c2cc(C(O)(C(F)(F)F)C(F)(F)F)ccc21 (centres unmarked) [NR-67]	> 10 µM	1.32 µM	19 µM	–	–	–
CCCCn1c(=O)c2cc(NC(=O)C3CC3)ccc2c2cc(C(O)(C(F)(F)F)C(F)(F)F)ccc21 [NR-51]	1.8 µM	0.3 µM	8.4 µM	–	–	–
CCCCn1c(=O)c2ccccc2c2cc(C(O)(C(F)(F)F)C(F)(F)F)ccc21 [HA-579]	–	–	–	8.7 µM	> 10 µM	–
CCCCn1c(=O)c2c(OC)cccc2c2cc(C(O)(C(F)(F)F)C(F)(F)F)ccc21 [KZ31, 5-butyl-2-(1′,1′,1′,3′,3′,3′-hexafluoro-2′-hydroxypropan-2′-yl)-7-methoxy-phenanthridin-6(5H)-one]	–	–	–	3.3 µM	> 10 µM	–
CCCCn1c(=O)c2ccccc2c2cc(C(O)(C(F)(F)F)C(F)(F)F)c3c(c21)OCO3 [HA-718, 4-butyl-11-(1′,1′,1′,3′,3′,3′-hexafluoro-2′-hydroxypropan-2′-yl)-[1,3]dioxolo [4,5-c]phenanthridin-5(4H)-one]	–	–	–	3.1 µM	> 10 µM	–
CCCCn1c(=O)c2cc(OC)ccc2c2cc(C(O)(C(F)(F)F)C(F)(F)F)c(OC)c(OC)c21 [HA-727, 5-butyl-2-(1′,1′,1′,3′,3′,3′-hexafluoro-2′-hydroxypropan-2′-yl)-3,4,8-trimethoxy-phenanthridin-6(5H)-one]	–	–	–	4.8 µM	> 10 µM	–
CCCCn1c(=O)c2cccc(OC)c2c2cc(C(O)(C(F)(F)F)C(F)(F)F)ccc21 [KZ33, 5-butyl-2-(1′,1′,1′,3′,3′,3′-hexafluoro-2′-hydroxypropan-2′-yl)-10-methoxy-phenanthridin-6(5H)-one]	–	–	–	4.1 µM	> 10 µM	–
CCCCn1c(=O)c2cc(OCCO)ccc2c2cc(C(O)(C(F)(F)F)C(F)(F)F)cc(OC)c21 [NR-26]	14.8 µM	1.24 µM	> 20 µM	–	–	–
CCCCn1c(=O)c2ccccc2c2cc(C(O)(C(F)(F)F)C(F)(F)F)cc(C)c21 [KZ07]	–	–	–	3.3 µM	–	CC50 (VeroE6/TMPRSS2 cells [5]): > 10 µM
CCCCn1c(=O)c2cc(O)ccc2c2cc(C(O)(C(F)(F)F)C(F)(F)F)cc(OC)c21 [NR-19]	4.44 µM	0.61 µM	> 20 µM	–	–	–
CCCCn1c(=O)c2ccc(C)cc2c2cc(C(O)(C(F)(F)F)C(F)(F)F)ccc21 [YN033]	–	–	–	6 µM	–	CC50 (VeroE6/TMPRSS2 cells [5]): > 10 µM
CCCCn1c(=O)c2cc(OC)ccc2c2cc(C(O)(C(F)(F)F)C(F)(F)F)c3c(c21)OCO3 [HA-719, 4-butyl-11-(1′,1′,1′,3′,3′,3′-hexafluoro-2′-hydroxypropan-2′-yl)-7-methoxy-[1,3]dioxolo[4,5-c]phenanthridin-5(4H)-one]	–	–	–	2.6 µM	> 10 µM	cell death due to SARS-CoV-2 infection observed under a microscope (FIG. 2) (SARS-CoV-2 (WK-521) [3]; 5 μM of HA-719, VeroE6/TMPRSS2 cells): almost no cell death was observed
CCCCn1c(=O)c2cc3c(cc2c2cc(C(O)(C(F)(F)F)C(F)(F)F)c4c(c21)OCO4)OCO3 [HA-754]	–	–	–	5 µM	> 10 µM	–

Source: patent US20230192622A1, “ANTI-SARS-COV-2 DRUG” (ONCOLYS BIOPHARMA, INC., priority 2020, published 2023)
